Measured values from patent publication US8182837B2, “Methods and compositions for reducing the risk associated with the administration of opioid analgesics in patients with diagnosed or undiagnosed respiratory illness” (QRxPharma Limited, priority 2003, dated 2012).
Where two headings read alike, the source gives them in different places.

Columns and labels:
[1] = P=0.033; of borderline clinical significance
[2] = cited from earlier work; for lower threshold for an initial dosage resulting in production of analgesia: naive human adult

CN1CC[C@]23c4c5ccc(O)c4O[C@H]2[C@@H](O)C=C[C@H]3[C@H]1C5 [Morphine, morphine]
difference mean, pre-treatment VAS greater than steady-state VAS [1]: 1.2 cm
lower threshold for an initial dosage resulting in production of analgesia ([2]; intravenous route): 4-5 mg every four hours
lower threshold for an initial dosage resulting in production of analgesia ([2]; oral route): 30 mg every four hours

COc1ccc2c3c1O[C@H]1C(=O)CC[C@@]4(O)[C@@H](C2)N(C)CC[C@]314 [oxycodone]
analgesic potency relative to morphine (as a function of mass of dose) ([2]; in vivo): about 1.5 times
lower threshold for an initial dosage resulting in production of analgesia ([2]; oral route): 10 mg every four hours
